Measurements: patent US12448369B2 (Edgewise Therapeutics, Inc., priority 2023, dated 2025)

Key:
[1] = test system: Rabbit Psoas myofibrils (skeletal myosin ATPase); assay: Myofibril ATPase assay, rabbit psoas (skeletal) myofibrils; type: biochemical; details: rabbit psoas myofibrils
Procedure, shortened: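 Readout: A340 decline from NADH oxidation, PK/LDH-coupled to ADP release; kinetic reads over 75 min. Buffer: pCa (PIPES, CaCl2, EGTA), pH 7.0. Linear-regression slopes vs vehicle, 4PL fit; reported as concentration giving 75% (Y75) or 125% (Y125) of vehicle activity.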

[2] = test system: Porcine atria myofibrils (atrial myosin ATPase); assay: Myofibril ATPase assay, porcine atria myofibrils; type: biochemical; details: porcine atria myofibrils
Procedure, shortened: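 Coupled PK-LDH readout, NADH loss at 340 nm, kinetic 75 min. Porcine atria myofibrils, pCa buffer (PIPES/CaCl2/EGTA, pH 7.0). Slopes (mAU/min) normalized to vehicle = 100%, 4-parameter fit; Y75 or Y125 reported.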

[3] = target: T1, Porcine ventricle myofibrils (ventricular myosin ATPase) (Sus scrofa, UniProt P79293); assay: Myofibril ATPase assay, porcine ventricle myofibrils; type: biochemical, porcine (Yucatan minipigs); details: porcine ventricle myofibrils
T1 construct: Myofibrils from porcine cardiac muscle was isolated from the left ventricle of Yucatan minipigs; tissue Exemplar Genetics; host or cells: left ventricle of Yucatan minipigs, myofibrils prepared in house
Procedure, shortened: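 Read-out: A340 kinetic, NADH consumption coupled to ADP via PK-LDH, 75 min. Yucatan minipig LV myofibrils, pCa buffer (PIPES/CaCl2/EGTA, pH 7.0). Linear-regression slope (mAU/min), vehicle = 100%, 4PL fit; Y75 or Y125 reported.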

[4] = Y75 value (75% activity relative to no compound)

T1 sequence (P79293 whole entry): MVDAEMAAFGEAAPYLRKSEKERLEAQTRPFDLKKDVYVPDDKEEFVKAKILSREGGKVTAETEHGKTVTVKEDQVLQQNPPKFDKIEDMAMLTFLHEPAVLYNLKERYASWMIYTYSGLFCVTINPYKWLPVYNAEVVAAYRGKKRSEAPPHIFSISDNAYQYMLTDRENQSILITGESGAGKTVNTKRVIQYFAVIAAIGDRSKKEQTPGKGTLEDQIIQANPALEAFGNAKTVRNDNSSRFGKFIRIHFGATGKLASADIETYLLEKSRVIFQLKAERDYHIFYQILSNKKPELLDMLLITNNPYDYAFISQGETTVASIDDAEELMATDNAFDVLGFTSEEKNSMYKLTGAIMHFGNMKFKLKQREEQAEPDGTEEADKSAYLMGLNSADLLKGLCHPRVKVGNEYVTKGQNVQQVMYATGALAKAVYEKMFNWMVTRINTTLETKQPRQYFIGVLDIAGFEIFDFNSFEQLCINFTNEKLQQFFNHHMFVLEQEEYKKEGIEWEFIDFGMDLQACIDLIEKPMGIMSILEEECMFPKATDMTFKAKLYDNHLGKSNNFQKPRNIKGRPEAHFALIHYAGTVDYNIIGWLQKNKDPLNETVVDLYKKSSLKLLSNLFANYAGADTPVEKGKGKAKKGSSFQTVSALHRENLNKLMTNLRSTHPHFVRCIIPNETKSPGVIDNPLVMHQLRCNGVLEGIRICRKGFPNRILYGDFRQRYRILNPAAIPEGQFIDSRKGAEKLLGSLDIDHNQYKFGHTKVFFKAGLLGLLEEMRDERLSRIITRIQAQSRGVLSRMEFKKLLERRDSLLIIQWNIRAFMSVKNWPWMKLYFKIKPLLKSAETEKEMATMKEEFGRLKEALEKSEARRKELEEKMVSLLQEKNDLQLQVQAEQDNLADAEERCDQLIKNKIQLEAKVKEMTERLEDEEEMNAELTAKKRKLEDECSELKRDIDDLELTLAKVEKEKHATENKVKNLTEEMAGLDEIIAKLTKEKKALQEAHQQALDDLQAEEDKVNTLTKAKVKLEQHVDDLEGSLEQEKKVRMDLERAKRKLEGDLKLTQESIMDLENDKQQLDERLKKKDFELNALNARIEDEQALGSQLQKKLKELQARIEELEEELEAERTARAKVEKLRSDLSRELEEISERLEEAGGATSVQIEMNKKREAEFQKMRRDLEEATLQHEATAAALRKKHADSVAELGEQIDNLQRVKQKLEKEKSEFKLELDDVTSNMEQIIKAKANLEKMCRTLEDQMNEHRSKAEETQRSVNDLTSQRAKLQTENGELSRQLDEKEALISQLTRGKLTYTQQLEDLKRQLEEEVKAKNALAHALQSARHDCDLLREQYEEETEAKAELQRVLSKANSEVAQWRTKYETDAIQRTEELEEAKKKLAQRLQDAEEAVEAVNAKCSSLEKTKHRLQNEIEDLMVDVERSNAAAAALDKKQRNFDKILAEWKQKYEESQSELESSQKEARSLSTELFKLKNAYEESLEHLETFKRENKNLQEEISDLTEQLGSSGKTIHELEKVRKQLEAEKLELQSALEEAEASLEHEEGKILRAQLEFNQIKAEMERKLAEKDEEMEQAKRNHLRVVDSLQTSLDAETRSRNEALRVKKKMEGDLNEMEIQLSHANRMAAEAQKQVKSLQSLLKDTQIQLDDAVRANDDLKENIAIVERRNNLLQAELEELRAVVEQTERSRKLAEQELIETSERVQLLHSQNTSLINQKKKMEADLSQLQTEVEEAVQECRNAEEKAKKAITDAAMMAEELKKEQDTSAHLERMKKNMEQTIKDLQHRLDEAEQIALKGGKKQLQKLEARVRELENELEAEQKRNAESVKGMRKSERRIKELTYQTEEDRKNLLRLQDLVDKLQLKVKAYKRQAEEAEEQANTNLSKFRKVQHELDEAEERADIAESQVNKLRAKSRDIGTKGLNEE

## Cc1c(CC(=O)N[C@@H]2COc3cccnc32)c(=O)[nH]c2ccnc(C#N)c12 (single isomer, unassigned) [compound 212]
[1]; Y75 value
  Skeletal EC25: 2.21 µM
[2]; [4]
  Atrial EC25: 14.71 µM
[3]; Y75 value
  Ventricular EC25: 35.35 µM

## Cc1c(CC(=O)N[C@@H](C)c2ccc(F)cc2F)c(=O)[nH]c2ccnc(N)c12 [compound 352]
[1]; Y75 value
  Skeletal EC25: 0.18 µM
[2]; [4]
  Atrial EC25: 2.64 µM
[3]; Y75 value
  Ventricular EC25: 31.62 µM

## CC(NC(=O)C(F)(F)c1cc2cc(F)ccc2[nH]c1=O)c1cc(C#N)ccn1 (single isomer, unassigned) [Compound 2573]
[1]; Y75 value (no ‡ mark)
  Skeletal EC25: 100.00 µM
[2]; Y75 value (no ‡ mark)
  Atrial EC25: 100.00 µM
[3]; Y75 value (no ‡ mark)
  Ventricular EC25: 100.00 µM

## C[C@H](NC(=O)Cc1cc2c(F)c(F)ccc2[nH]c1=O)c1ccc(F)cc1F [compound 118]
[1]; Y75 value (no ‡ mark)
  Skeletal EC25: 0.03 µM
[2]; Y75 value (no ‡ mark)
  Atrial EC25: 0.06 µM
[3]; Y75 value (no ‡ mark)
  Ventricular EC25: 0.30 µM

## C[C@H](NC(=O)[C@@H](C)c1c(C(F)(F)F)c2cc(F)ccc2[nH]c1=O)c1ccc(F)cc1F (single isomer, unassigned) [compound 99]
[1]; Y75 value (no ‡ mark)
  Skeletal EC25: 0.09 µM
[2]; Y75 value (no ‡ mark)
  Atrial EC25: 0.13 µM
[3]; Y75 value (no ‡ mark)
  Ventricular EC25: 100.00 µM

## CCc1c(CC(=O)N[C@@H](C)c2ccc(F)cc2F)c(=O)[nH]c2ccccc12 [compound 126]
[1]; Y75 value (no ‡ mark)
  Skeletal EC25: 0.03 µM
[2]; Y75 value (no ‡ mark)
  Atrial EC25: 0.06 µM
[3]; Y75 value (no ‡ mark)
  Ventricular EC25: 0.49 µM

## Cc1c(CC(=O)N[C@@H](CO)c2ccc(C#N)cc2F)c(=O)[nH]c2ccnc(OC3CC3)c12 [compound 204]
[1]; Y75 value
  Skeletal EC25: 0.07 µM
[2]; [4]
  Atrial EC25: 0.47 µM
[3]; Y75 value
  Ventricular EC25: 7.78 µM

## Cc1ccncc1[C@H](C)NC(=O)Cc1c(C)c2c(C)c(F)ccc2[nH]c1=O [compound 1047]
[1]; Y75 value (no ‡ mark)
  Skeletal EC25: 100 µM
[2]; Y75 value (no ‡ mark)
  Atrial EC25: 100.00 µM
[3]; Y75 value (no ‡ mark)
  Ventricular EC25: 1.13 µM

## Cc1ccc2[nH]c(=O)c(CC(=O)N[C@@H](C)c3ccc(F)cc3F)c(C)c2n1 [compound 420]
[1]; Y75 value
  Skeletal EC25: 0.19 µM
[2]; [4]
  Atrial EC25: 0.11 µM
[3]; Y75 value
  Ventricular EC25: 2.34 µM

## Cc1c(C2(C(=O)N[C@H](C)c3ncc(C#N)cn3)CC2)c(=O)[nH]c2ccc(F)c(C#N)c12 (single isomer, unassigned) [compound 2531]
[1]; Y75 value (no ‡ mark)
  Skeletal EC25: 2.08 µM
[2]; Y75 value (no ‡ mark)
  Atrial EC25: 1.29 µM
[3]; Y75 value (no ‡ mark)
  Ventricular EC25: 15.11 µM

## Cc1cc([C@@H](C)NC(=O)Cc2cc3c(C#N)nccc3[nH]c2=O)ncc1F [compound 470]
[1]; Y75 value
  Skeletal EC25: 9.89 µM
[2]; [4]
  Atrial EC25: 100.00 µM
[3]; Y75 value
  Ventricular EC25: 100.00 µM

## Cc1cc(C#N)nnc1[C@@H](C)NC(=O)Cc1c(C)c2cc(F)ccc2[nH]c1=O [compound 1058]
[1]; Y75 value (no ‡ mark)
  Skeletal EC25: 29.21 µM
[2]; Y75 value (no ‡ mark)
  Atrial EC25: 1.92 µM
[3]; Y75 value (no ‡ mark)
  Ventricular EC25: 6.86 µM

## Cc1nccc2[nH]c(=O)c([C@@H](C)C(=O)N[C@@H](C)c3ccc(F)cc3F)c(C(F)(F)F)c12 (single isomer, unassigned) [compound 410]
[1]; Y75 value
  Skeletal EC25: 0.76 µM
[2]; [4]
  Atrial EC25: 5.46 µM
[3]; Y75 value
  Ventricular EC25: 100.00 µM

## C[C@@H](NC(=O)Cc1cc2c(C(F)(F)F)c(F)ccc2[nH]c1=O)c1ncc(C#N)cn1 (single isomer, unassigned) [compound 2009]
[1]; Y75 value (no ‡ mark)
  Skeletal EC25: 2.25 µM
[2]; Y75 value (no ‡ mark)
  Atrial EC25: 100.00 µM
[3]; Y75 value (no ‡ mark)
  Ventricular EC25: 100.00 µM

## Cc1ccccc1[C@H](C)NC(=O)Cc1c(C)c2c(C)nccc2[nH]c1=O (single isomer, unassigned) [compound 327]
[1]; Y75 value
  Skeletal EC25: 0.67 µM
[2]; [4]
  Atrial EC25: 3.29 µM
[3]; Y75 value
  Ventricular EC25: 9.24 µM

## C[C@@H](NC(=O)Cc1c(C2CC2)c2cc(F)ccc2[nH]c1=O)c1ccc(C#N)nn1 (single isomer, unassigned) [compound 2053]
[1]; Y75 value (no ‡ mark)
  Skeletal EC25: 12.45 µM
[2]; Y75 value (no ‡ mark)
  Atrial EC25: 100.00 µM
[3]; Y75 value (no ‡ mark)
  Ventricular EC25: 100.00 µM

## Cc1c(CC(=O)N[C@H](C)c2ccc(C#N)nn2)c(=O)[nH]c2ccc(F)cc12 [compound 1119]
[1]; Y75 value (no ‡ mark)
  Skeletal EC25: 0.22 µM
[2]; Y75 value (no ‡ mark)
  Atrial EC25: 0.48 µM
[3]; Y75 value (no ‡ mark)
  Ventricular EC25: 1.18 µM

## N#Cc1cnc2c(c1)CC[C@@H]2NC(=O)Cc1cc2c(F)c(F)ccc2[nH]c1=O (single isomer, unassigned) [compound 8]
[1]; Y75 value (no ‡ mark)
  Skeletal EC25: 100.00 µM
[2]; Y75 value (no ‡ mark)
  Atrial EC25: 100.00 µM
[3]; Y75 value (no ‡ mark)
  Ventricular EC25: 100.00 µM

## Cc1nccc2[nH]c(=O)c(CC(=O)N[C@H](C)c3cnc(C#N)cn3)c(C)c12 [compound 486]
[1]; Y75 value
  Skeletal EC25: 0.20 µM
[2]; [4]
  Atrial EC25: 1.49 µM
[3]; Y75 value
  Ventricular EC25: 1.47 µM

## C[C@H](NC(=O)C1(c2cc3cc(F)ccc3[nH]c2=O)CC1)c1nccc(C#N)n1 (single isomer, unassigned) [compound 2508]
[1]; Y75 value (no ‡ mark)
  Skeletal EC25: 5.03 µM
[2]; Y75 value (no ‡ mark)
  Atrial EC25: 100.00 µM
[3]; ‡ Y125 value, not a Y75 value (125% activity relative to no compound)
  Ventricular EC25: 70.50‡ μM

## Cc1nccc2[nH]c(=O)c(CC(=O)N[C@@H](C)c3cccc(O)c3)c(C)c12 (single isomer, unassigned) [compound 331]
[1]; Y75 value
  Skeletal EC25: 100.00 µM
[2]; [4]
  Atrial EC25: 100.00 µM
[3]; Y75 value
  Ventricular EC25: 100.00 µM

## Cc1c(CC(=O)N[C@@H](C)c2ccc(C#N)cc2F)c(=O)[nH]c2ccnc(OC3CC3)c12 [compound 202]
[1]; Y75 value
  Skeletal EC25: 0.11 µM
[2]; [4]
  Atrial EC25: 0.11 µM
[3]; Y75 value
  Ventricular EC25: 0.83 µM

## Cc1c(CC(=O)N[C@@H](C)c2ccc(F)cc2F)c(=O)[nH]c2ccc(F)c(F)c12 [compound 116]
[1]; Y75 value (no ‡ mark)
  Skeletal EC25: 0.02 µM
[2]; Y75 value (no ‡ mark)
  Atrial EC25: 0.04 µM
[3]; Y75 value (no ‡ mark)
  Ventricular EC25: 0.13 µM

## Cc1c(CC(=O)N[C@H](C)c2ncc(C#N)cn2)c(=O)[nH]c2cccc(C#N)c12 (single isomer, unassigned) [compound 2069]
[1]; Y75 value (no ‡ mark)
  Skeletal EC25: 0.49 µM
[2]; Y75 value (no ‡ mark)
  Atrial EC25: 0.04 µM
[3]; Y75 value (no ‡ mark)
  Ventricular EC25: 2.76 µM

## C[C@H](NC(=O)Cc1cc2c(F)c(F)ccc2[nH]c1=O)c1ncc(F)cc1F [compound 34]
[1]; Y75 value (no ‡ mark)
  Skeletal EC25: 0.02 µM
[2]; Y75 value (no ‡ mark)
  Atrial EC25: 0.02 µM
[3]; Y75 value (no ‡ mark)
  Ventricular EC25: 0.05 µM

## C#Cc1nccc2[nH]c(=O)c(CC(=O)N[C@@H](C)c3ccc(F)cc3F)cc12 [compound 431]
[1]; Y75 value
  Skeletal EC25: 0.80 µM
[2]; [4]
  Atrial EC25: 11.13 µM
[3]; Y75 value
  Ventricular EC25: 50.88 µM

## O=C(Cc1cc2cc(F)ccc2[nH]c1=O)N1CC[C@H]2C[C@@H]1c1ccccc12 (single isomer, unassigned) [compound 4502]
[1]; Y75 value (no ‡ mark)
  Skeletal EC25: 0.50 µM
[2]; Y75 value (no ‡ mark)
  Atrial EC25: 1.28 µM
[3]; Y75 value (no ‡ mark)
  Ventricular EC25: 0.63 µM

## N#Cc1cnc2c(n1)CC[C@@H]2NC(=O)Cc1cc2cc(F)c(F)cc2[nH]c1=O [compound 1083]
[1]; Y75 value (no ‡ mark)
  Skeletal EC25: 4.15 µM
[2]; Y75 value (no ‡ mark)
  Atrial EC25: 5.80 µM
[3]; Y75 value (no ‡ mark)
  Ventricular EC25: 100.00 µM

## C[C@H](NC(=O)[C@H](C)c1c(C(F)(F)F)c2cc(F)ccc2[nH]c1=O)c1ccc(F)cc1F (single isomer, unassigned) [compound 100]
[1]; Y75 value (no ‡ mark)
  Skeletal EC25: 0.04 µM
[2]; Y75 value (no ‡ mark)
  Atrial EC25: 0.06 µM
[3]; Y75 value (no ‡ mark)
  Ventricular EC25: 0.69 µM

## Cc1c(C2(C(=O)N[C@@H](C)c3ncc(C#N)cn3)CC2)c(=O)[nH]c2cccc(C#N)c12 (single isomer, unassigned) [compound 2544]
[1]; Y75 value (no ‡ mark)
  Skeletal EC25: 2.27 µM
[2]; Y75 value (no ‡ mark)
  Atrial EC25: 4.48 µM
[3]; Y75 value (no ‡ mark)
  Ventricular EC25: 18.26 µM

## COc1ccc([C@H](C)NC(=O)Cc2c(C)c3c(C)nccc3[nH]c2=O)cc1 (single isomer, unassigned) [compound 287]
[1]; Y75 value
  Skeletal EC25: 100.00 µM
[2]; [4]
  Atrial EC25: 100.00 µM
[3]; Y75 value
  Ventricular EC25: 100.00 µM

## Cc1c(C2(C(=O)N[C@H](C)c3ncc(C#N)cn3)CC2)c(=O)[nH]c2cccc(C#N)c12 (single isomer, unassigned) [compound 2543]
[1]; Y75 value (no ‡ mark)
  Skeletal EC25: 0.83 µM
[2]; Y75 value (no ‡ mark)
  Atrial EC25: 0.73 µM
[3]; Y75 value (no ‡ mark)
  Ventricular EC25: 4.00 µM

## Cc1c(CC(=O)N[C@H](C)c2ccc(F)cc2F)c(=O)[nH]c2ccnc(C(F)(F)F)c12 [compound 270]
[1]; Y75 value
  Skeletal EC25: 100.00 µM
[2]; [4]
  Atrial EC25: 100.00 µM
[3]; Y75 value
  Ventricular EC25: 100.00 µM
